Patent US9758492B2, “IDO inhibitors” (Bristol-Myers Squibb Company, priority 2013, dated 2017)

The compounds below were run against T1, Human IDO1 (Homo sapiens, UniProt P14902) (assay: IDO Kynurenine Assay with Human IDO1/HEK293 Cells). Settings: read-out: HEK human IDO-1 (IC50).
T1 construct: expressed in transfected cells; host or cells: HEK293
T1 sequence (P14902 whole entry): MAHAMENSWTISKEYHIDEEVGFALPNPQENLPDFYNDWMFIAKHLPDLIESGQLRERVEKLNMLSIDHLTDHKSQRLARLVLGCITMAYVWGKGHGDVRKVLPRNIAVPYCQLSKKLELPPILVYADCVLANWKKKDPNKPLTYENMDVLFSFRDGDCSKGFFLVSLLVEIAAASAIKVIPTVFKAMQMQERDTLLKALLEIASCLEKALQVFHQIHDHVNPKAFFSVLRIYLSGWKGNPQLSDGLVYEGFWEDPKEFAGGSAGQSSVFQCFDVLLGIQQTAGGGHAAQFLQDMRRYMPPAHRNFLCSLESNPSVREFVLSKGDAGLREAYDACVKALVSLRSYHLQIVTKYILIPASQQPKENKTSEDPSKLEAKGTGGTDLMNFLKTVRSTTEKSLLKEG
Format: cell-based
Method: IDO Kynurenine Assay with Human IDO1/HEK293 Cells
Human IDO1/HEK293 cells were seeded at 10,000 cells per 50 uL per well with RPMI/phenol red free media contains 10% FBS in a 384-well black wall clear bottom tissue culture plate (Matrix Technologies LLC) 125 nL of certain concentration of compound was then added to each well using ECHO liquid handling systems. The cells were incubated for 20 hours in 37° C. incubator with 5% CO2.
The compound treatments were stopped by adding Trichloroacetic Acid (Sigma-Aldrich) to a final concentration at 0.2%. The cell plate was further incubated at 50° C. for 30 minute. The equal volume supernatant (20 uL) and 0.2% (w/v) Ehrlich reagent (4-dimethylaminobenzaldehyde, Sigma-Aldrich) in glacial acetic acid were mixed in a new clear bottom 384-well plate. This plate was then incubated at room temperature for 30 minute. The absorbance at 490 nm was measured on Envision plate reader.
Compound IC50 values were calculated using the counts of 500 nM of a reference standard treatment as one hundred percent inhibition, and counts of no compound but DMSO treatment as zero percent inhibition.
Compound `CC(C)CN(c1c(F)cc(-c2ccccc2C(=O)O)cc1NC(=O)Nc1ccc(Cl)cc1F)C1CCCCC1` [Example 438] has an IC50 of 1.67 nM. With `CC(C)CN(CC(C)C)c1ccc(-c2ccccc2-c2nnn[nH]2)cc1NC(=O)Nc1ccc(C#N)nc1` [Example 489] the IC50 was 220 nM. `CC(C)CN(c1c(F)cc(-c2ccccc2C(=O)O)cc1NC(=O)Nc1ccccc1F)C1CCCCC1` [Example 432] showed an IC50 of 1.82 nM. For `CC(C)CN(c1cc(F)c(-c2cc(F)ccc2C(=O)O)cc1NC(=O)Nc1cnn(CC(F)(F)F)c1)C1CCC(F)(F)CC1` [Example 520, 4′-((4,4-Difluorocyclohexyl)(isobutyl)amino)-2′,5-difluoro-5′-(3-(1-(2,2,2-trifluoroethyl)-1H-pyrazol-4-yl)ureido)-[1,1′-biphenyl]-2-carboxylic acid], the IC50 was 4870 nM. Work on `Cc1ccc(NC(=O)Nc2cc(-c3cc(C)ccc3C(=O)O)ccc2N(CC(C)C)CC(C)C)cc1` [Example 530, 4′-(Diisobutylamino)-5-methyl-3′-(3-(p-tolyl)ureido)-[1,1′-biphenyl]-2-carboxylic acid] yielded an IC50 of 300 nM. `Cc1ncc(NC(=O)Nc2cc(-c3cc(F)ccc3C(=O)O)c(F)cc2N(CC(C)C)C2C[C@H]3CC[C@@H]2C3)cn1` (stereo partly drawn) [Example 413] was tested, and the IC50 was 1960 nM. Work on `CC(C)CN(CC(C)C)c1cc(F)c(-c2cc(F)ccc2C(=O)O)cc1NC(=O)Nc1ccc(Cl)cc1F` [Example 428] yielded an IC50 of 1.84 nM. In the case of `CC(C)CN(CC(C)C)c1ccc(-c2ccccc2-c2nnn[nH]2)cc1NC(=O)Nc1cncnc1` [Example 391], the IC50 is reported as 280 nM. Compound `CCOc1ccc(NC(=O)Nc2cc(-c3cc(F)ccc3C(=O)O)c(F)cc2N(CC(C)C)C2CCC(F)(F)CC2)cc1` [Example 540] has an IC50 of 10 nM. Work on `CC(C)CN(CC(C)C)c1ccc(-c2ccccc2-c2nnn[nH]2)cc1NC(=O)NC1CCCC1` [Example 464] yielded an IC50 of 790 nM. Compound `Cc1cc(NC(=O)Nc2cc(-c3cc(F)ccc3C(=O)O)c(F)cc2N(CC(C)C)C2CCC(F)(F)CC2)no1` [Example 518, 4′-((4,4-Difluorocyclohexyl)(isobutyl)amino)-2′,5-difluoro-5′-(3-(5-methylisoxazol-3-yl)ureido)-[1,1′-biphenyl]-2-carboxylic acid] has an IC50 of 20 nM. `CC(C)CN(c1cc(F)c(-c2cc(F)ccc2C(=O)O)cc1NC(=O)Nc1ccccc1F)C1CCC(F)(F)CC1` [Example 538, 4′-((4,4-Difluorocyclohexyl)(isobutyl)amino)-2′,5-difluoro-5′-(3-(2-fluorophenyl)ureido)-[1,1′-biphenyl]-2-carboxylic acid] was tested, and the IC50 was 10 nM. In the case of `[2H]C([2H])(C(C)C)N(c1ccc(-c2cc(F)ccc2C(=O)O)cc1NC(=O)Nc1ccc(C)cc1)C([2H])([2H])C(C)C` [Example 477], the IC50 is reported as 7.65 nM. `CC(C)CN(c1cc(F)c(-c2cc(F)ccc2C(=O)O)cc1NC(=O)Nc1ccn(C)n1)C1CCCCC1` [Example 515, 4′-(Cyclohexyl(isobutyl)amino)-2′,5-difluoro-5′-(3-(1-methyl-1H-pyrazol-3-yl)ureido)-[1,1′-biphenyl]-2-carboxylic acid] was tested, and the IC50 was 4220 nM. `C=C(C)CN(c1ccc(-c2ccccc2C(=O)O)cc1NC(=O)Nc1ccc(C)cc1)C1CCCCC1` [Example 460] showed an IC50 of 2.4 nM. `Cc1cc(NC(=O)Nc2cc(-c3cc(F)ccc3C(=O)O)c(F)cc2N(CC(C)C)C2CCC(F)(F)CC2)on1` [Example 521, 4′-((4,4-Difluorocyclohexyl)(isobutyl)amino)-2′,5-difluoro-5′-(3-(3-methylisoxazol-5-yl)ureido)-[1,1′-biphenyl]-2-carboxylic acid] was tested, and the IC50 was 8.44 nM. With `Cc1ccc(NC(=O)Nc2cc(-c3ccccc3C(=O)O)c(F)cc2N(CC(C)C)C2CCC(F)(F)CC2)cc1` [Example 533, 4′-((4,4-Difluorocyclohexyl)(isobutyl)amino)-2′-fluoro-5′-(3-(p-tolyl)ureido)-[1,1′-biphenyl]-2-carboxylic acid] the IC50 was 8.02 nM. Work on `Cc1ccc(C(=O)O)c(-c2ccc(N(CC(C)C)CC(C)C)c(NC(=O)Nc3ccccc3F)c2)c1` [Example 526, 4′-(Diisobutylamino)-3′-(3-(2-fluorophenyl)ureido)-5-methyl-[1,1′-biphenyl]-2-carboxylic acid] yielded an IC50 of 240 nM. In the case of `CCc1ccc(NC(=O)Nc2cc(-c3ccccc3-c3nnn[nH]3)ccc2N(CC(C)C)CC(C)C)cc1` [Example 459], the IC50 is reported as 7.09 nM. `Cc1ccc(NC(=O)Nc2cc(-c3ccccc3-c3nnn[nH]3)c(F)cc2N(CC(C)C)CC(C)C)cc1` [Example 429] gave an IC50 of 5.55 nM. `COCCN(c1ccc(-c2ccccc2-c2nnn[nH]2)cc1NC(=O)Nc1ccc(C)cc1)C1CCCCC1` [Example 446] was tested, and the IC50 was 2.45 nM. `CC(C)CN(c1cc(F)c(-c2cc(F)ccc2C(=O)O)cc1NC(=O)Nc1cncnc1)C1CCCCC1` [Example 486] was tested, and the IC50 was 30 nM. `CCOc1ccc(NC(=O)Nc2cc(-c3cc(F)ccc3C(=O)O)ccc2N(C2CC2)C2CC2)cc1` [Example 543] showed an IC50 of 7240 nM. Compound `Cc1ccc(NC(=O)Nc2cc(-c3cc(F)ccc3C(=O)O)c(F)cc2N(CC(C)C)C2CCCCC2)cn1` [Example 394] has an IC50 of 7.9 nM. `CC(C)CN(c1cc(F)c(-c2cc(F)ccc2C(=O)O)cc1NC(=O)Nc1ccnnc1)C1CCCCC1` [Example 402] gave an IC50 of 4830 nM. Work on `CC(C)CN(CC(C)C)c1cc(F)c(-c2ccccc2C(=O)O)cc1NC(=O)Nc1ccc(Cl)cc1F` [Example 427] yielded an IC50 of 1.61 nM. Compound `CCC(CC)N(CC(C)C)c1ccc(-c2cc(F)ccc2C(=O)O)cc1NC(=O)Nc1ccccc1F` [Example 450] has an IC50 of 5.47 nM. With `Cc1cnc(NC(=O)Nc2cc(-c3ccccc3-c3nnn[nH]3)ccc2N(CC(C)C)CC(C)C)cn1` [Example 308, 1-(4-(diisobutylamino)-2′-(2H-tetrazol-5-yl)-[1,1′-biphenyl]-3-yl)-3-(5-methylpyrazin-2-yl)urea] the IC50 was 270 nM. `Cc1ccc(NC(=O)Nc2cc(-c3cc(F)ccc3C(=O)O)ccc2N(CC(C)C)C2CCCCC2)cn1` [Example 399] was tested, and the IC50 was 20 nM. `Cc1cc(NC(=O)Nc2cc(-c3cc(F)ccc3C(=O)O)c(F)cc2N(CC(C)C)C2CCCCC2)on1` [Example 376] was tested, and the IC50 was 2.15 nM. `Cc1ccc(NC(=O)Nc2cc(-c3cc(F)ccc3C(=O)O)c(F)cc2N(CC(C)C)C2CCCCC2)nn1` [Example 522, 4′-(Cyclohexyl(isobutyl)amino)-2′,5-difluoro-5′-(3-(6-methylpyridazin-3-yl)ureido)-[1,1′-biphenyl]-2-carboxylic acid] showed an IC50 of 1220 nM. Work on `CCOc1ccc(NC(=O)Nc2cc(-c3cc(C)ccc3C(=O)O)ccc2N(CC(C)C)CC(C)C)cc1` [Example 529, 4′-(Diisobutylamino)-3′-(3-(4-ethoxyphenyl)ureido)-5-methyl-[1,1′-biphenyl]-2-carboxylic acid] yielded an IC50 of 390 nM. `[2H]C([2H])(C(C)C)N(c1ccc(-c2ccccc2-c2nnn[nH]2)cc1NC(=O)Nc1ccc(C)cc1)C([2H])([2H])C(C)C` [Example 424] gave an IC50 of 5.27 nM. In the case of `CC(C)CN(c1c(F)cc(-c2cc(F)ccc2C(=O)O)cc1NC(=O)Nc1ccccc1F)C1CCCCC1` [Example 431], the IC50 is reported as 3.76 nM. In the case of `COc1cccc(-c2ccc(N(CC(C)C)CC(C)C)c(NC(=O)Nc3ccc(Cl)cc3F)c2)c1C(=O)O` [Example 500], the IC50 is reported as 20 nM. With `COC(C)(C)CCN(CCCC(F)(F)F)c1ccc(-c2ccccc2C(=O)O)cc1NC(=O)Nc1ccc(C)cc1` [Example 422] the IC50 was 1480 nM.
